Assay results reported in US10273220B2, “Derivative of Inula lineariifolia lactone A” (SHANXI ZHENDONG LEADING BIOTECHNOLOGY CO., LTD., priority 2015, dated 2019).
Structures can show the parent of a compound that is named as a salt.

Assays:
[1] = test system: experimental autoimmune encephalomyelitis (EAE) model; experiment: Pharmacodynamics on EAE model (MOG 35-55 induced), EAE score and H&E/LFB staining of cervical spinal cord; type: in vivo, C57BL/6 mice; settings: for incidence of EAE: intragastric administration (FIG. 5, FIG. 6)
Mice = experiment: Single-dose toxicity in mice; type: in vivo; settings: for deaths: three males and three females
Protocol: Mice were divided into four groups for each having three males and three females and treated by compound 1 at a single-dose of 200, 600, 1800 and 5400 mg/kg, respectively.

Sprague Dawley rats = experiment: 7-day repeated intragastric toxicity in rats; type: in vivo; settings: intragastrically daily at 75, 150, 300 mg/kg for 7 consecutive days, 3 males and 3 females per group
Protocol: Sprague Dawley rats, each group having 3 males and 3 females were administrated intragastrically daily at 75, 150, 300 mg/kg respectively for 7 consecutive days.

[2] = Bioavailability by oral administration; type: in vivo
[3] = test system: experimental autoimmune encephalomyelitis (EAE) model; settings: mice; cited from earlier work
[4] = 30 mg/kg/day intragastrically, vs EAE model group
[5] = crystal type A, 15 mg/kg once daily oral gavage, vs EAE model group

SMILES: CC(=O)O[C@H]1C[C@H](OC(C)=O)[C@]2(C)[C@@H]1[C@H](C)C[C@@H]1OC(=O)[C@H](CN(C)C)[C@H]1[C@@H]2OC(C)=O [Compound I, dimethylamine 4-O-acetyl inula lineariifolia lactone A]
- course of EAE ([1]; 30 mg/kg): ameliorated
- disease severity (EAE score) ([1]; 30 mg/kg/day intragastrically, from day 0 of immunization, 30 days): reduced
- onset of EAE ([1]; 30 mg/kg/day intragastrically, from day 0 of immunization, 30 days, in 0.5% CMC-Na): delayed
- arrangement of the organization (blood vessel and tissue) [1, 4]: basically returned to normal condition
- demyelination (LFB staining) [1, 4]: significantly reduced
- inflammatory cells (H&E analysis) [1, 4]: reduced
- incidence of EAE [1]: significantly reduce
- deaths (Mice; single dose 1800 mg/kg): One female mouse died
- deaths (Mice; single dose 5400 mg/kg): Five mice except one male mouse died
- toxic reactions (Mice; single dose 200 and 600 mg/kg, three males and three females per group): No obvious toxic reactions were observed

SMILES: CC(=O)O[C@H]1C[C@H](OC(C)=O)[C@]2(C)[C@@H]1[C@H](C)C[C@@H]1OC(=O)[C@H](CN(C)C)[C@H]1[C@@H]2OC(C)=O [Compound IV, dimethylamine 4-O-acetyl inula lineariifolia lactone A fumarate]
- onset of EAE ([1]; crystal type A in injection water, 15 mg/kg once daily oral gavage from day 0): delayed
- course of EAE ([1]; crystal type A, 15 mg/kg once daily oral gavage): ameliorated
- disease severity (EAE score) ([1]; crystal type A, 15 mg/kg once daily oral gavage from day 0): reduced
- demyelination (LFB staining) ([1]; crystal type A, 15 mg/kg once daily oral gavage, vs EAE model control): significant lower
- arrangement of the organization (blood vessel and tissue) [1, 5]: basically returned to normal condition
- inflammatory cells (H&E analysis) [1, 5]: reducing
- incidence of EAE [1]: significantly reduce
- toxic reactions (Sprague Dawley rats): No obvious toxic reactions were observed

SMILES: C=C1C(=O)O[C@H]2C[C@@H](C)[C@@H]3[C@@H](OC(C)=O)C[C@H](O)[C@@]3(C)[C@@H](OC(C)=O)[C@H]12 [Inula lineariifolia lactone A]
- bioavailability by oral administration [2]: low
- therapeutic effect on EAE model [3]: good therapeutic effect
